Reference: US20230015308A1, “SUBSTITUTED THIAZOLE AROMATIC RING-BASED COMPOUND AND PREPARATION METHOD THEREFOR, HERBICIDAL COMPOSITION AND USE THEREOF” (QINGDAO KINGAGROOT CHEMICAL COMPOUND CO., LTD., priority 2019, published 2023)

Columns and labels:
Assay in all cases: Weeding effect in post-emergence stage (greenhouse pot test)
Format in all cases: in vivo
Conditions in all cases: 15 g a.i./ha, 3 weeks after application
Amaranthus retroflexus = system: Amaranthus retroflexus
Description: (§1) The activity level criteria for plant damage (i.e., growth control rate) are as follows:
(§2) Level 5: growth control rate is above 85%;
(§3) Level 4: growth control rate is greater than or equal to 60% and less than 85%;
(§4) Level 3: growth control rate is greater than or equal to 40% and less than 60%;
(§5) Level 2: growth control rate is greater than or equal to 20% and less than 40%;
(§6) Level 1: growth control rate is greater than or equal to 5% and less than 20%;
(§7) Level 0: growth control rate is less than 5%.
(§8) The above growth control rates are fresh weight control rates.
(§9) Experiment on weeding effect in post-emergence stage:
(§10) Monocotyledonous and dicotyledonous weed seeds (Descurainia sophia, Capsella bursa-pastoris, Abutilon theophrasti, Galium aparine, Stellaria media, Lithospermum arvense, Rorippa indica, Alopecurus aequalis, Alopecurus japonicus, Beckmannia syzigachne, Sclerochloa dura, Conyza Canadensis, Phleum paniculatum, Veronica didyma Tenore, Eleusine indica, Bromus japonicus, Aegilops tauschii, Phalaris arundinacea, Amaranthus retroflexus, Chenopodium album, Commelina communis, Sonchus arvensis, Convolvulus arvensis, Cirsium setosum, Solanum nigrum, Acalypha australis, Digitaria sanguinalis, Echinochloa crusgalli, Setaria viridis, Setaria glauca, Leptochloa chinensis, Monochoria vaginalis, Sagittaria trifolia, Scirpus juncoides, Cyperus rotundus, Cyperus iria, Cyperus difformis, Fimbristylis, Portulaca oleracea, Xanthium sibiricum, Pharbitis nil) and major crop seeds (wheat, corn, rice, soybean, cotton, oilseed rape, millet, sorghum, potato, sesame, ricinus) were placed in plastic pots filled with soil, then covered with 0.5-2 cm of soil, allowed to grow in a good greenhouse environment. After 2 weeks of sowing, the test plants were treated in the 2-3 leaf stage. The tested compounds of the present invention were respectively dissolved in acetone, then added with Tween 80 and 1.5 liter/ha of emulsifiable concentrate of methyl oleate as synergist, diluted with a certain amount of water to obtain a solution with a certain concentration, and sprayed with a spray tower onto the plants. After the application, the plants were cultured for 3 weeks in the greenhouse, and then the experimental results of the weeding were counted. The doses of the used compounds were 500, 250, 125, 60, 15 g a.i./ha, and the averages were obtained by repeating for three times.

Digitaria sanguinalis = system: Digitaria sanguinalis
Description: as §1, §2, §3, §4, §5, §6, §7, §8, §9, §10

Veronica didyma Tenore = system: Veronica didyma Tenore
Description: as §1, §2, §3, §4, §5, §6, §7, §8, §9, §10

Setaria viridis = system: Setaria viridis
Description: as §1, §2, §3, §4, §5, §6, §7, §8, §9, §10

Galium aparine = system: Galium aparine
Description: as §1, §2, §3, §4, §5, §6, §7, §8, §9, §10

Echinochloa crusgalli = system: Echinochloa crusgalli
Description: as §1, §2, §3, §4, §5, §6, §7, §8, §9, §10

Abutilon theophrasti = system: Abutilon theophrasti
Description: as §1, §2, §3, §4, §5, §6, §7, §8, §9, §10

Row | Structure (SMILES) | Amaranthus retroflexus, activity level (fresh weight growth control rate) (Amaranthus retroflexus) | Digitaria sanguinalis, activity level (fresh weight growth control rate) (Digitaria sanguinalis) | Veronica didyma Tenore, activity level (fresh weight growth control rate) (Veronica didyma Tenore) | Setaria viridis, activity level (fresh weight growth control rate) (Setaria viridis) | Galium aparine, activity level (fresh weight growth control rate) (Galium aparine) | Echinochloa crusgalli, activity level (fresh weight growth control rate) (Echinochloa crusgalli) | Abutilon theophrasti, activity level (fresh weight growth control rate) (Abutilon theophrasti)
1 | Cn1c(C(F)(F)F)cc(=O)n(-c2cc(-c3ncc(C(=O)OCc4ccccc4)s3)c(Cl)cc2F)c1=O [1-35] | 5 (Level 5: growth control rate is above 85%) | 3 (Level 3: growth control rate is greater than or equal to 40% and less than 60%) | 5 (Level 5: growth control rate is above 85%) | 5 (Level 5: growth control rate is above 85%) | 5 (Level 5: growth control rate is above 85%) | 4 (Level 4: growth control rate is greater than or equal to 60% and less than 85%) | 5 (Level 5: growth control rate is above 85%)
2 | COC(=O)C(C)OC(=O)c1cnc(-c2cc(-n3c(=O)cc(C(F)(F)F)n(C)c3=O)c(F)cc2Cl)s1 (centres unmarked) [1-48] | 5 (Level 5: growth control rate is above 85%) | 4 (Level 4: growth control rate is greater than or equal to 60% and less than 85%) | 5 (Level 5: growth control rate is above 85%) | 5 (Level 5: growth control rate is above 85%) | 5 (Level 5: growth control rate is above 85%) | 5 (Level 5: growth control rate is above 85%) | 5 (Level 5: growth control rate is above 85%)
3 | CC(C)=NOC(=O)c1cnc(-c2cc(-n3c(=O)cc(C(F)(F)F)n(C)c3=O)c(F)cc2Cl)s1 [1-55] | 5 (Level 5: growth control rate is above 85%) | 5 (Level 5: growth control rate is above 85%) | 5 (Level 5: growth control rate is above 85%) | 5 (Level 5: growth control rate is above 85%) | 5 (Level 5: growth control rate is above 85%) | 5 (Level 5: growth control rate is above 85%) | 5 (Level 5: growth control rate is above 85%)
4 | CCOC(=O)c1csc(-c2cc(-n3c(=O)cc(C(F)(F)F)n(C)c3=O)c(F)cc2Cl)n1 [2-2] | 5 (Level 5: growth control rate is above 85%) | 4 (Level 4: growth control rate is greater than or equal to 60% and less than 85%) | 5 (Level 5: growth control rate is above 85%) | – | 5 (Level 5: growth control rate is above 85%) | – | 5 (Level 5: growth control rate is above 85%)
5 | CCOC(=O)c1csc(-c2cc(-n3c(=O)n(C)c(=S)n(C)c3=O)c(F)cc2Cl)n1 [2-113] | 5 (Level 5: growth control rate is above 85%) | – | 5 (Level 5: growth control rate is above 85%) | – | 5 (Level 5: growth control rate is above 85%) | – | –
6 | COC(=O)c1nc(-c2cc(-n3c(=O)cc(C(F)(F)F)n(C)c3=O)c(F)cc2Cl)cs1 [4-1] | 5 (Level 5: growth control rate is above 85%) | – | 5 (Level 5: growth control rate is above 85%) | – | – | 4 (Level 4: growth control rate is greater than or equal to 60% and less than 85%) | –
7 | COC(=O)c1nc(-c2cc(-n3c(=O)n(C)c(=S)n(C)c3=O)c(F)cc2Cl)cs1 [4-158] | 5 (Level 5: growth control rate is above 85%) | – | 5 (Level 5: growth control rate is above 85%) | – | 5 (Level 5: growth control rate is above 85%) | – | –
